Key:
Type in all cases: cell-based
[1] = biological target: vanilloid receptor 1 (VR1/TRPV1) (Rattus norvegicus (Rat), UniProt O35433); experiment: FLIPR Ca2+ influx assay on rat dorsal root ganglia cells, capsaicin stimulus (Pharmacological Method I)
Source text: I. Functional Investigation on the Vanilloid Receptor 1 (VR1/TRPV1 Receptor)
The agonistic or antagonistic action of the substances to be investigated on the vanilloid receptor 1 (VR1/TRPV1) of the species rat can be determined using the following assay. According to this assay, the Ca^2+ influx through the receptor channel is quantified with the aid of a Ca^2+-sensitive dye (Type Fluo-4, Molecular Probes Europe BV, Leiden Netherlands) in a fluorescent imaging plate reader (FLIPR, Molecular Devices, Sunnyvale, USA).
Complete medium: 50 mL of HAMS F12 Nutrient Mixture (Gibco Invitrogen GmbH, Karlsruhe, Germany) with
10% by volume of FCS (fetal calf serum, Gibco Invitrogen GmbH, Karlsruhe, Germany, heat-inactivated);
2 mM of L-glutamine (Sigma, Munich, Germany);
1% by weight of AA solution (antibiotics/antimycotics solution, PAA, Pasching, Austria)
and 25 ng/mL of Medium NGF (2.5 S, Gibco Invitrogen GmbH, Karlsruhe, Germany) Cell culture plate: Poly-D-lysine-coated, black 96-well plates with a clear bottom (96-well black/clear plate, BD Biosciences, Heidelberg, Germany) are additionally coated with laminin (Gibco Invitrogen GmbH, Karlsruhe, Germany) by diluting laminin to a concentration of 100 μg/mL with PBS (Ca—Mg-free PBS, Gibco Invitrogen GmbH, Karlsruhe, Germany). Aliquots having a concentration of 100 μg/mL of laminin are taken and stored at −20° C. The aliquots are diluted with PBS in the ratio 1:10 to 10 μg/mL of laminin and in each case 50 μL of the solution is pipeted into a well of the cell culture plate. The cell culture plates are incubated at 37° C. for at least two hours, the supernatant solution is aspirated and the wells are in each case washed twice with PBS. The coated cell culture plates are stored with supernatant PBS and this is removed only directly before the addition of the cells.
Preparation of the Cells:
The vertebral column is removed from decapitated rats and this is laid directly in a cold, i.e. ice bath-surrounded, HBSS buffer (Hank's buffered saline solution, Gibco Invitrogen GmbH, Karlsruhe, Germany) and 1% by volume of an AA solution (antibiotics/antimycotics solution, PAA, Pasching, Austria) is added. The vertebral column is cut in two, longitudinally, and the vertebral canal is removed together with fascias. Subsequently, the dorsal root ganglia (DRGs) are removed and in turn stored in cold HBSS buffer to which 1% by volume of an AA solution has been added. The DRGs completely freed from blood residues and spinal nerves are in each case transferred to 500 μL of cold collagenase Type 2 (PAA, Pasching, Austria) and incubated at 37° C. for 35 minutes. After the addition of 2.5% by volume of trypsin (PAA, Pasching, Austria), the preparation is incubated at 37° C. for a further 10 minutes. On completion of incubation, the enzyme solution is carefully pipeted off and 500 μL of complete medium are added to the DRGs in each case. The DRGs are in each case repeatedly suspended, drawn through No. 1, No. 12, and No. 16 needles by means of a syringe and transferred to 50 mL Falcon tubes and these are filled to 15 mL with complete medium. The contents of each Falcon tube are in each case filtered through a 70 μm Falcon filter insert and centrifuged at 1200 rpm and RT for 10 minutes. The resulting pellet is in each case taken up in 250 μL of complete medium and the cell count is determined.
The number of cells in the suspension is adjusted to 3×10^5 per mL and in each case 150 μL of this suspension are added to a well of the cell culture plates coated as described above. The plates are allowed to stand at 37° C., 5% by volume of CO2 and 95% relative humidity for two to three days in an incubator. […]

VR1/TRPV1 receptor = VR1/TRPV1 receptor (Homo sapiens (Human), UniProt Q8NER1); experiment: Inhibition of human VR1/TRPV1 following pH-stimulus
vanilloid receptor (VR1) = vanilloid receptor (VR1) (Homo sapiens (Human), UniProt Q8NER1); experiment: FLIPR Ca2+ influx assay on CHO-K1 cells transfected with the human VR1 gene, capsaicin stimulus (Pharmacological Method II)
Method: Furthermore, preference may be given to compounds of the invention of the general formulas I, Ia, Ib and Ic, which in the FLIPR assay using CHO—K1 cells, which have been transfected with the human VR1 gene in a concentration below 2000 nM, preferably below 1000 nM, more preferably below 300 nM, even more preferably below 100 nM, still more preferably below 75 nM, very preferably below 50 nM and most preferably below 10 nM, cause a 50 percent displacement of capsaicin present in a concentration of 100 nM. In the FLIPR assay, the Ca^2+ influx is quantified with the aid of a Ca^2+-sensitive dye (type Fluo-4, Molecular Probes Europe BV, Leiden, Netherlands) in a fluorescent imaging plate reader (FLIPR, Molecular Devices, Sunnyvale, USA), as described below.
II. Functional Investigations on the Vanilloid Receptor (VR1)
The agonistic or antagonistic action of the substances to be examined on the vanilloid receptor (VR1) can alternatively be determined by the following assay. According to this assay the Ca^2+ influx through the canal is quantified with the aid of a Ca^2+-sensitive dye (type Fluo-4, Molecular Probes, Europe BV, Leiden, Netherlands) in a fluorescent imaging plate reader (FLIPR, Molecular Devices, Sunnyvale, USA).
Chinese hamster ovary cells (CHO—K1 cells, European Collection of Cell Cultures (ECACC) UK) are stably transfected with the VR1 gene. For carrying out functional investigations, these cells are plated on poly-D-lysine-coated, black 96-well plates with a clear bottom (BD Biosciences, Heidelberg, Germany) in a density of 25,000 cells/well. The cells are incubated overnight at 37° C. and 5% CO2 in a culture medium (Nutrient Mixture ‘am’s F12, 10% by volume of FCS (fetal calf serum), 18 μg/mL of L-proline). On the following day the cells are incubated with Fluo-4 (Fluo-4 2 μM, Pluronic F127 0.01 by volume, Molecular Probes in HBSS (Hank's buffered saline solution), Gibco Invitrogen GmbH, Karlsruhe, Germany) for 30 minutes at 37° C. The plates are then washed 3 times with HBSS buffer and, after another incubation over a period of 15 minutes at RT, are used in the FLIPR for Ca^2+ measurement. The Ca^2+-dependent fluorescence is measured prior to and following the addition of the substances being examined (wavelength λex=488 nm, λem=540 nm). Quantification is carried out by measuring the highest fluorescence intensity (PC, fluorescence counts) over time.
The FLIPR protocol consists of two substance additions. First of all, the substances to be tested (10 μM) are pipeted onto the cells and the Ca^2+ influx is compared with the control (capsaicin 10 μM) (percentage activation based on the Ca^2+ signal following addition of 10 μM of capsaicin). Following incubation over a period of 5 minutes 100 nM of capsaicin are applied and the influx of Ca^2+ is likewise determined.
Desensitizing agonists and antagonists lead to a suppression of the Ca^2+ influx. The percentage inhibition compared with the maximum inhibition achieved with 10 μM of capsaicin is calculated.
Based on the percentage displacement effected by different concentrations of the compounds of the general formula Ito be tested, IC50 inhibition concentrations that cause 50 percent displacement of capsaicin are calculated. Conversion using the Cheng Prusoff equation gave Ki values for the test substances (Cheng, Prusoff; Bioch. Pharmacol. 22, 3099-3108, 1973).
The affinity of the compounds of the invention for the vanilloid receptor 1 (VR1/TRPV1-Receptor) was detected as described above (Pharmacological Methods I and II respectively).

VR1/TRPV1 receptor, sequence (Q8NER1 whole entry): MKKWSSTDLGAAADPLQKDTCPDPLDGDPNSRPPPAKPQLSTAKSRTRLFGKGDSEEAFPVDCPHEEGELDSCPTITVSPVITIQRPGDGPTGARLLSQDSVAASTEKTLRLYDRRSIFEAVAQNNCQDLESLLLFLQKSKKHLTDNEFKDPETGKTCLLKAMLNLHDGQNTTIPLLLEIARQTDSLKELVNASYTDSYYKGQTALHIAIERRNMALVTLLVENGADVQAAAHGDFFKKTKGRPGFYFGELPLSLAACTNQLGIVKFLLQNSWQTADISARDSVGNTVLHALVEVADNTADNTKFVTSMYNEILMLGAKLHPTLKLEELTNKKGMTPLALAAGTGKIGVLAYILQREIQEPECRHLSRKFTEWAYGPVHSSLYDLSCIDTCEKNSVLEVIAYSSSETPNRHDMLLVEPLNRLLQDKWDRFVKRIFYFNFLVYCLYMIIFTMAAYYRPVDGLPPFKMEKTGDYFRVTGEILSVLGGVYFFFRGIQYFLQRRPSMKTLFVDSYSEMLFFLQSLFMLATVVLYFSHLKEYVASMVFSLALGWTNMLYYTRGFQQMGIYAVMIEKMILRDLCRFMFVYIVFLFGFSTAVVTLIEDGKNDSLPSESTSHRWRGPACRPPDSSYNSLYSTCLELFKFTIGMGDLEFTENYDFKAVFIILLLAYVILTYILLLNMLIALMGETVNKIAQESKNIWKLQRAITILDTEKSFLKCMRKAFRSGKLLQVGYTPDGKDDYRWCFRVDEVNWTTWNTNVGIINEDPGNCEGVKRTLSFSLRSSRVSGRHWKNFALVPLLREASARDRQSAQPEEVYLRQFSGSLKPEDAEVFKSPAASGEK
vanilloid receptor 1 (VR1/TRPV1), sequence (O35433 whole entry): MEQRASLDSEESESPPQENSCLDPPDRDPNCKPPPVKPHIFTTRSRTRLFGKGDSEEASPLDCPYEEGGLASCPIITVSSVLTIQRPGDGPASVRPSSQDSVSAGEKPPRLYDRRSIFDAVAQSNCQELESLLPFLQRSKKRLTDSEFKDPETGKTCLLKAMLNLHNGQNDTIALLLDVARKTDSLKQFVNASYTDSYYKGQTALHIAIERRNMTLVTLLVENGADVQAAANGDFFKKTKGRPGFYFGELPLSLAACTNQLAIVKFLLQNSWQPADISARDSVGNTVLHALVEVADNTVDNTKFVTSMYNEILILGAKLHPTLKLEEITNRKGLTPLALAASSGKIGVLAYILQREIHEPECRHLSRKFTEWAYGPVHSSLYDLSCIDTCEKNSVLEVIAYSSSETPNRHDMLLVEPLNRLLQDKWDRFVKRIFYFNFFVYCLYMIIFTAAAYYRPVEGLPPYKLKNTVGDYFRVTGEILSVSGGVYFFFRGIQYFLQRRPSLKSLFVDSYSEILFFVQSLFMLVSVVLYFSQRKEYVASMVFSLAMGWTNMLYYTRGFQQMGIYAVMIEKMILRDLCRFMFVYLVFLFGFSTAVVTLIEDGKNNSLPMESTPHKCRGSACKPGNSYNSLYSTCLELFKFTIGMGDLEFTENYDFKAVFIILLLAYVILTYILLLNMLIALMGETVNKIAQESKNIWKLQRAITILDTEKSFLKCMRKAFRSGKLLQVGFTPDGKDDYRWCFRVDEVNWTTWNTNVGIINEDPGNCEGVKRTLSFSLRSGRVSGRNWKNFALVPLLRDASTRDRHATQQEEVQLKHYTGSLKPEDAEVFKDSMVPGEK
vanilloid receptor (VR1), sequence (Q8NER1 whole entry): as the sequence (Q8NER1 whole entry) above

Row | SMILES | Ki [1] | IC50 (Human) following pH-stimulus (VR1/TRPV1 receptor; ne = no effect, no reaction observed) | Ki (vanilloid receptor (VR1)) | inhibition at 1 µM (VR1/TRPV1 receptor; @ 1 μM, read-out: inhibition (in percent) following pH-stimulus (Human)) | inhibition at 5 µM (VR1/TRPV1 receptor; @ 5 μM, read-out: inhibition (in percent) following pH-stimulus (Human)) | inhibition at 10 µM (VR1/TRPV1 receptor; @ 10 μM, read-out: inhibition (in percent) following pH-stimulus (Human))
1 | CC1CCN(c2nc(C(F)(F)F)ccc2CNC(=O)C(C)c2cc(F)c(N)c(F)c2)CC1 (centres unmarked) [Example 26, 2-(4-Amino-3,5-difluorophenyl)-N-((2-(4-methylpiperidin-1-yl)-6-(trifluoromethyl)pyridin-3-yl)methyl)propanamide] | 3.4 nM | ne | 9.6 nM |  |  | 
2 | CC1CCN(c2nc(C(F)(F)F)ccc2CNC(=O)C(C)c2cc(O)c([N+](=O)[O-])c(F)c2)CC1 (centres unmarked) [Example 27, 2-(3-Fluoro-5-hydroxy-4-nitrophenyl)-N-((2-(4-methylpiperidin-1-yl)-6-(trifluoromethyl)pyridin-3-yl)methyl)propanamide] | 7.7 nM |  | 7.9 nM | 7% | 35% | 49%
